pIC50: −log10 of the molar value.
Assays:
B16 [1] = assay: Inhibition of alpha-MSH -stimulated melanogenesis in mouse B16 cells assessed as melanin release after 3 days; assay type: functional, cell-based; settings: B16, 72 h
B16 [2] = assay: Inhibition of alpha-MSH -stimulated melanogenesis in mouse B16 cells assessed as melanin release at 10 uM after 3 days; assay type: functional; settings: B16, 72 h

Compound	pIC50 (B16 [1])	inhibition at 10 µM (B16 [2])
CC12CCC3(C=C1CC/C(=C\c1ccccc1)C2=O)SCCS3 (stereo not given)	4.98	85%
Cc1ccc(/C=C2\CCC3=CC4(CCC3(C)C2=O)SCCS4)cc1 (stereo not given)	4.77	> 100%
CCc1ccc(/C=C2\CCC3=CC4(CCC3(C)C2=O)SCCS4)cc1 (stereo not given)	4.73	80%
CC12CCC3(C=C1CC/C(=C\c1ccc(C(C)(C)C)cc1)C2=O)SCCS3 (stereo not given)	4.87	83%
CC12CCC3(C=C1CC/C(=C\c1ccc(Cl)cc1)C2=O)SCCS3 (stereo not given)	< 4.52	35%
CC12CCC3(C=C1CC/C(=C\c1ccc(Cl)c(Cl)c1)C2=O)SCCS3 (stereo not given)	4.59	62%
CC12CCC3(C=C1CC/C(=C\c1cccc4ccccc14)C2=O)SCCS3 (stereo not given)	4.94	85%
CC12CCC3(C=C1CC/C(=C\C=C\c1ccccc1)C2=O)SCCS3 (stereo not given)	4.78	75%
COc1ccc(/C=C2\CCC3=CC4(CCC3(C)C2=O)SCCS4)cc1 (stereo not given)	5.46	> 100%
COc1ccc(/C=C2\CCC3=CC4(CCC3(C)C2=O)SCCS4)cc1OC (stereo not given)	< 4.52	43%
COCOc1ccc(/C=C2\CCC3=CC4(CCC3(C)C2=O)SCCS4)cc1 (stereo not given)	5.22	92%
CC12CCC3(C=C1CC/C(=C\c1ccc(OCc4ccccc4)cc1)C2=O)SCCS3 (stereo not given)	4.87	80%
CC12CCC3(C=C1CC/C(=C\c1ccc(O)cc1)C2=O)SCCS3 (stereo not given)	5.37	96%
CN(C)c1ccc(/C=C2\CCC3=CC4(CCC3(C)C2=O)SCCS4)cc1 (stereo not given)	5.12	65%
Cc1ccc(/C=C2\CCC3=CC(=O)CCC3(C)C2=O)cc1 (stereo not given)	4.64	60%
COc1ccc(/C=C2\CCC3=CC(=O)CCC3(C)C2=O)cc1 (stereo not given)	5.22	72%
CC1CCC/C(=C\c2ccccc2)C1=O (stereo not given)	< 4.52	< 10%
Cc1ccc(/C=C2\CCCC(C)C2=O)cc1 (stereo not given)	< 4.52	< 10%
CC1CCC/C(=C\c2ccc(Cl)cc2)C1=O (stereo not given)	< 4.52	< 10%
COc1ccc(/C=C2\CCCC(C)C2=O)cc1 (stereo not given)	< 4.52	< 10%
CC1CCC/C(=C\c2ccc(O)cc2)C1=O (stereo not given)	< 4.52	< 10%
CC12CCC3(C=C1CCCC2=O)SCCS3 (stereo not given)	< 4.52	< 10%
OC[C@H]1O[C@@H](Oc2ccc(O)cc2)[C@H](O)[C@@H](O)[C@@H]1O [ARBUTIN]	3.92	
